Data taken from US11807608B2, “Polymerizable compounds with one or more surfactant-like properties” (University of Manitoba, priority 2017, dated 2023).

Assay: Surface tension by Wilhelmy plate (KRUSS K100 Tensiometer, ASTM D1331-14)
Format: physicochemical
Text: A KRUSS K100 Tensiometer was used to determine the surface tension of a sample of the compounds in liquid water at different concentrations. The concentrations tested were 0.5%, 1.0%, 3.0%, 5.0% and 10%. A platinum plate with dimensions of about 19.9 mm×about 0.2 mm×about 10 mm (width, thickness and height respectfully) was attached to a sensitive mass balance. The sample was raised to the fixed platinum plate at a rate of 10 mm/min with a detection sensitivity of 0.005 g until the liquid sample reached the bottom of the plate. The plate was then immersed in the liquid sample at a depth of 2 mm for 60-150 seconds and any change in mass was recorded by the equipment as a function of time. Force was determined using the equation f=ma.
The surface tension (γ) of each liquid sample was calculated from the force measurement (f) using the equation outlined in Method C: Surface Tension by Wilhelmy plate, ASTM D1331-14.
[formula] where (l) is the length and (t) is the thickness of the plate. The contact angle was assumed to be 0. The test results describe a trend and general indication of the surfactant properties of each compound tested.

[1] = 0.5% in water, 150 second measurement
[2] = 1.0% in water, 150 second measurement
[3] = 3.0% in water, 150 second measurement
[4] = 5.0% in water, 150 second measurement
[5] = 10.0% in water, 150 second measurement

| Compound | Surface Tension Mean (0.5% in water, 60 second measurement) [mN/m] | Surface Tension Mean (1.0% in water, 60 second measurement) [mN/m] | Surface Tension Mean (3.0% in water, 60 second measurement) [mN/m] | Surface Tension Mean (5.0% in water, 60 second measurement) [mN/m] | Surface Tension Mean (10.0% in water, 60 second measurement) [mN/m] | Surface Tension Mean [1] [mN/m] | Surface Tension Mean [2] [mN/m] | Surface Tension Mean [3] [mN/m] | Surface Tension Mean [4] [mN/m] | Surface Tension Mean [5] [mN/m] |
| --- | --- | --- | --- | --- | --- | --- | --- | --- | --- | --- |
| C=C(C)C(=O)NCCC[N+](C)(C)CCCCCCCCCC[N+](C)(C)C1CC(C)(C)NC(C)(C)C1.[Br-].[Br-] [Formula 5, PIP-C10-C3-methyl, methyl, acrylamide] | 36.93 | 32.55 | 31.23 | 30.28 | 29.57 | – | – | – | – | – |
| C=C(C)C(=O)OCC[N+](C)(C)CCCCCCCCCC[N+](C)(C)C1CC(C)(C)NC(C)(C)C1.[Br-].[Br-] [Formula 6] | – | – | – | – | – | 47.18 | 39.51 | 36.93 | 35.50 | 36.39 |
| C=C(C)C(=O)OCCCCCCCCCCC[N+](C)(C)C1CC(C)(C)NC(C)(C)C1.[Br-] [Formula 9] | – | – | – | – | – | 37.16 | 36.19 | 35.80 | 35.84 | 30.44 |
